{"source": "PubChem BioAssay AID401", "about": "(SGCOxCompounds, 2006)", "data": [{"target": "Tyrosine-protein phosphatase non-receptor type 7 (Homo sapiens) (UniProt P35236)", "sequence (P35236 whole entry, looked up)": "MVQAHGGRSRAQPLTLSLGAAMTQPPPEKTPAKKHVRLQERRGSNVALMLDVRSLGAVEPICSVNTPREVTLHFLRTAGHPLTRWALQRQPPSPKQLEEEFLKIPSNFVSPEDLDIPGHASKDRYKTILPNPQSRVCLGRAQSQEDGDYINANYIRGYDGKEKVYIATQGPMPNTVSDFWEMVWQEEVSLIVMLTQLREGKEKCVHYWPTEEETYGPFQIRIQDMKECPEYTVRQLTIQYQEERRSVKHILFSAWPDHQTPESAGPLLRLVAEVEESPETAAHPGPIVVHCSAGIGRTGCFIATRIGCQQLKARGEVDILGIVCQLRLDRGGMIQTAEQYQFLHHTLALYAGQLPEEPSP", "test": "inhibition of HePTP dephosphorylation activity – biochemical, DiFMUP fluorescence, recombinant human enzyme (AID 401)", "conditions": "recombinant PTPN7, DiFMUP fluorescence; at 50 µM; enzyme 37.6 ng/mL; 25 °C; DTT 5 mM; stronger effect = higher value", "units": {"inhibition": "%"}, "values": [{"smiles": "Cn1nc(-c2ccccc2)nc2c(=O)n(C)c(=O)nc1-2", "inhibition": 37}, {"smiles": "O=C([O-])c1ccccn1.OO.OO.[K+].[K+].[O]=[V]", "inhibition": 71.5}, {"smiles": "O=C(O)c1ccc(O)cn1.OO.[O]=[V]", "inhibition": 58.5}, {"smiles": "OO.OO.[K+].[O]=[V].c1cnc2c(c1)ccc1cccnc12", "inhibition": 55}]}, {"target": "Tyrosine-protein phosphatase non-receptor type 7 (Homo sapiens) (UniProt P35236)", "test": "inhibition of HePTP dephosphorylation activity – biochemical, DiFMUP fluorescence, recombinant human enzyme (AID 401)", "conditions": "recombinant PTPN7, DiFMUP fluorescence; at 50 µM; enzyme 55 ng/mL; 25 °C; DTT 5 mM; stronger effect = higher value", "units": {"inhibition": "%"}, "values": [{"smiles": "[NH-]CO.[NH-]CO.[NH-]CO.[NH-]CO.[O]=[V][O][V]=[O]", "inhibition": 58}, {"smiles": "CCn1nc(-c2ccccc2)nc2c(=O)n(C)c(=O)nc1-2", "inhibition": 16}, {"smiles": "CC(=O)c1ccc2c(c1)C1C=CCC1C(C(=O)O)N2", "note": "(configuration not stated)", "inhibition": 89}, {"smiles": "O=C1NC(=S)S/C1=C\\C=C\\c1ccc([N+](=O)[O-])o1", "inhibition": 99}, {"smiles": "O=C(O)c1ccc(O)c(C=Nc2ccc3oc(-c4ccc(F)cc4Cl)nc3c2)c1", "inhibition": 100}, {"smiles": "O=C(O)c1ccc(O)c(N2C(=O)Nc3ccccc3N2O)c1", "inhibition": 41}, {"smiles": "COc1cccc(-c2nc3cc(N=Cc4cc(C(=O)O)ccc4O)ccc3o2)c1", "inhibition": 56}, {"smiles": "Cc1ccc(C)n1-c1cc(C(=O)O)ccc1O", "inhibition": 77}, {"smiles": "Cc1cccc(O)c1N=Cc1cc(C(=O)O)ccc1O", "inhibition": 37}, {"smiles": "O=C(O)c1ccc(O)c(C=Nc2ccc3oc(-c4ccccc4)nc3c2)c1", "inhibition": 31}, {"smiles": "O=C(Nc1ccc(O)cc1C(=O)O)c1ccc2c(c1)C(=O)N(CC1CCCO1)C2=O", "note": "(configuration not stated)", "inhibition": 35}, {"smiles": "CC(C)CN1C(=O)c2ccc(C(=O)Nc3ccc(O)cc3C(=O)O)cc2C1=O", "inhibition": 26}, {"smiles": "CCOC(=O)c1ccc(N=Cc2cc(C(=O)O)ccc2O)cc1", "inhibition": 39}, {"smiles": "O=C(O)c1ccc([O-])cn1.OO.OO.[K+].[K+].[O]=[V]", "inhibition": 76}, {"smiles": "Cc1ccc(N=Cc2cc(C(=O)O)ccc2O)c(O)c1", "inhibition": 42}, {"smiles": "O=C(O)c1ccc(O)c(C=Nc2ccc3oc(-c4cccc(Cl)c4Cl)nc3c2)c1", "inhibition": 61}, {"smiles": "O=C(O)c1ccc(O)c(C=Nc2cccc(-c3nc4ccccc4o3)c2)c1", "inhibition": 40}, {"smiles": "OO.OO.[K+].[O]=[V].c1ccc(-c2ccccn2)nc1", "inhibition": 69}, {"smiles": "Oc1c(Cl)c(Cl)c(O)c2nsnc12", "inhibition": 24}, {"smiles": "Cc1ccc2nc(-c3cc(N=Cc4cc(C(=O)O)ccc4O)ccc3O)[nH]c2c1", "inhibition": 98}, {"smiles": "NC1=NC(=O)/C(=C/C=C/c2ccc([N+](=O)[O-])o2)S1", "inhibition": 94}, {"smiles": "COc1ccc(OC)c(N=Cc2cc(C(=O)O)ccc2O)c1", "inhibition": 31}, {"smiles": "O=C(O)c1ccc(O)c(C=Nc2ccc3oc(-c4cc(Cl)ccc4Cl)nc3c2)c1", "inhibition": 39}, {"smiles": "Cc1ccc(C)n1-c1ccc(C(=O)O)cc1O", "inhibition": 47}, {"smiles": "Cc1c(Cl)c(C)c([N+](=O)[O-])c(O)c1C=Nc1ccc(O)cc1C(=O)O", "inhibition": 62}, {"smiles": "O=C1NC(=S)NC(=O)C1=C/C=C/c1ccco1", "inhibition": 97}, {"smiles": "CCn1nc(/C=C/c2ccccc2)nc2c(=O)n(C)c(=O)nc1-2", "inhibition": 39}, {"smiles": "CCn1nc(/C=C/c2ccccc2)[n+](=O)c2c(=O)n(C)c(=O)[nH]c21", "inhibition": 32}, {"smiles": "Cc1cc(C)c(N2C(=O)c3ccc(C(=O)Nc4ccc(O)cc4C(=O)O)cc3C2=O)c(C)c1", "inhibition": 44}, {"smiles": "CN(N=O)c1ccc(O)c(O)c1", "inhibition": 92}, {"smiles": "COc1ccc(-c2nc3cc(N=Cc4cc(C(=O)O)ccc4O)ccc3o2)cc1", "inhibition": 80}, {"smiles": "CC1=C(C)OC(Nc2ccc(Cl)cc2C(=O)O)C=C1", "note": "(configuration not stated)", "inhibition": 25}, {"smiles": "O=C(O)c1ccc(O)c(C=Nc2ccc3oc(-c4cccc(Cl)c4)nc3c2)c1", "inhibition": 25}, {"smiles": "O=C(COc1ccc([N+](=O)[O-])cc1)Nc1ccc(O)cc1C(=O)O", "inhibition": 13}, {"smiles": "CCn1nc(-c2ccc(Cl)cc2)nc2c(=O)n(C)c(=O)nc1-2", "inhibition": 58}, {"smiles": "O=C(O)c1ccc(O)c(/C=N/N(CCO)C2=NS(=O)(=O)c3ccccc32)c1", "inhibition": 57}, {"smiles": "Cn1nc(/C=C/c2ccccc2)nc2c(=O)n(C)c(=O)nc1-2", "inhibition": 45}, {"smiles": "CC(C)CCN1C(=O)c2ccc(C(=O)Nc3ccc(O)cc3C(=O)O)cc2C1=O", "inhibition": 45}]}]}
